From patent US9149441B2 (priority 2008, dated 2015)

Legend:
S. Aureus = test: Vancomycin formulations in S. Aureus septic shock rat model; assay type: in vivo; conditions: for Survival: simultaneous treatment group, peritonitis rat model (Table 8), 15 mg/kg twice/day for 3 days
Experimental: The efficacy of vancomycin nanospheres as compared to the solution formulation was determined in a septic shock rat model.
Three scenarios were evaluated:
Group 1. Determination of the efficacy of the encapsulated and solution formulation of vancomycin. [Pre-treatment Group].
(§1) The nanospheres and solution vancomycin formulations (15 mg/kg twice/day for 3 days) or blank nanospheres (control) were injected to different groups of animals 4 hrs prior to the animals being injected with S. Aureus (i.p.; 1.0×10^8 cfu/mL). Blood samples (0.5 mL) were obtained to determine the bacterial count at 0, 4, 24, 48, 96 and 120 hrs.
Group 2. Determination of the efficacy of the encapsulated and solution formulations of vancomycin. [Simultaneous treatment Group]
(§2) In this set of experiments, S. Aureus bacteria (1.0×10^8 cfu/mL) were administered i.p. and simultaneously the NS and solution gentamicin formulations (15 mg/kg twice/day for 3 days) or blank nanospheres (control) were injected subcutaneously to different groups of rats. Blood samples (0.5 mL) were obtained to determine the bacterial count at 0, 4, 24, 48, 96 and 120 hrs.
Group 3. Determination of the efficacy of the nanosphere and solution formulation of vancomycin. [Delayed treatment Group].
as §2, with “i.p. to different groups of rats” for “i.p.”, “4 hrs following infection” for “simultaneously”, “injected.” for “injected subcutaneously to different groups of rats.”

red blood cells (RBCs) = test: Potassium release from red blood cells (membrane toxicity); assay type: cell-based; conditions: all experimental concentrations; solution effect rising up to 0.08 mg/ml
Description: Potassium is found in high concentrations inside the red blood cells (RBCs). Any damage to membrane will result in leaking out of potassium from the RBCs.

E. Coli = test: Gentamicin formulations in E. Coli septic shock (peritonitis) rat model; assay type: in vivo; conditions: for % inhibition of the bacterial growth in the blood / Bact. count (cfu/mL): 120 hrs; for Bact. count (cfu/mL): blood; for Survival: peritonitis rat model (Table 5)
Experimental: Gentamicin in the solution and the nanosphere form were tested on rats in order to evaluate the E. Coli distribution in the body, also the two formulations were evaluated in septic shock rat models.
Group 1. Determination of the efficacy of the encapsulated and solution formulation of gentamicin. [Pre-treatment Group].
as §1, with “gentamicin” for “vancomycin”, “E. Coli” for “S. Aureus”, “1.1×10^9” for “1.0×10^8”, “samples” for “samples (0.5 mL)”
Group 2. Determination of the efficacy of the encapsulated and solution formulations of gentamicin. [Simultaneous treatment Group]
as §2, with “E. Coli” for “S. Aureus”, “(1.1×10^9” for “(1.0×10^8”, “samples” for “samples (0.5 mL)”
Group 3. Determination of the efficacy of the nanosphere and solution formulation of gentamicin. [Delayed treatment Group].
In this set of experiments, E. Coli bacteria (1.1×10^9 cfu/mL) were administered i.p. to different groups of rats and 4 hrs following infection the NS and solution gentamicin formulations (15 mg/kg twice/day for 3 days) or blank nanospheres (control) were injected. Blood samples were obtained to determine the bacterial count at 0, 4, 24, 48, 96 and 120 hrs.

Molecule | Survival (S. Aureus) | Bacterial count in the blood vs blank BSA nanospheres (S. Aureus; text Group 1, FIG. 14 (prophylactic treatment)) | Bacterial count in the blood vs blank BSA nanospheres (S. Aureus; text Group 2, FIG. 15 (simultaneous treatment)) | Potassium release from RBCs (red blood cells (RBCs)) | % inhibition of the bacterial growth in the blood (E. Coli; delayed treatment group (Table 7), listed as Solution) | % inhibition of the bacterial growth in the blood (E. Coli; delayed treatment group (Table 7), listed as gentamicin solution) | % inhibition of the bacterial growth in the blood (E. Coli; prophylactic treatment group (Table 6)) | % inhibition of the bacterial growth in the blood (E. Coli; simultaneous treatment group (Table 4)) | % inhibition of the bacterial growth in the blood (E. Coli; simultaneous treatment group (Table 4), listed as gentamicin solution) | Bact. count (cfu/mL) (E. Coli; delayed treatment group) | Bact. count (cfu/mL) (E. Coli; simultaneous treatment group, 15 mg/kg twice/day for 3 days) | Survival (E. Coli; simultaneous treatment group) | Survival (E. Coli; simultaneous treatment group, listed as gentamicin solution) | Bacterial count in the blood vs blank BSA nanospheres (S. Aureus; text Group 3, FIG. 16 (delayed treatment))
CN[C@H](CC(C)C)C(=O)N[C@H]1C(=O)N[C@@H](CC(N)=O)C(=O)N[C@H]2C(=O)N[C@H]3C(=O)N[C@H](C(=O)N[C@H](C(=O)O)c4cc(O)cc(O)c4-c4cc3ccc4O)[C@H](O)c3ccc(c(Cl)c3)Oc3cc2cc(c3O[C@@H]2O[C@H](CO)[C@@H](O)[C@H](O)[C@H]2O[C@H]2C[C@](C)(N)[C@H](O)[C@H](C)O2)Oc2ccc(cc2Cl)[C@H]1O [Vancomycin Solution, vancomycin] | 40% | significant lower bacterial count | significant lower bacterial count |  |  |  |  |  |  |  |  |  |  | 
C[C@@H]1[C@H](O)[C@@H](C)/C=C/C=C/C=C/C=C/C=C/C=C/C=C/[C@H](O[C@@H]2O[C@H](C)[C@@H](O)[C@H](N)[C@@H]2O)C[C@@H]2O[C@](O)(C[C@@H](O)C[C@@H](O)[C@H](O)CC[C@@H](O)C[C@@H](O)CC(=O)O[C@H]1C)C[C@H](O)[C@H]2C(=O)O [solution formulation of Amphotericin B, Amphotericin B] |  |  |  | significant release of potassium from the RBCs |  |  |  |  |  |  |  |  |  | 
gentamicin [Gentamicin Solution] | 40% |  |  |  | 15% | about 15% | about 35% | 75% | about 75% | 110 cfu/mL | 35 cfu/mL | 35% | 55% | significant lower bacterial count
